Data set [1] has as its system APEH mRNA in A375 cells. In words: APEH mRNA by qRT-PCR in A375. Type of data set: cell-based, human. How it is done: (§1) mRNA expression levels of APEH and β-5 proteasome subunit were determined in treated or untreated cells to investigate on the functional relationship existing between APEH and proteasome activities and on their involvement in the anticancer activity of CLA.
(§2) Total RNA was isolated from the human cell lines (~10^6 cells aliquots) according to the SV Total RNA Isolation System (Promega) protocol, with an on column DNase I step. Total RNA concentrations were determined using a Qubit® Fluorometer (Invitrogen). RNAs were then reverse transcribed using the Transcriptor First Strand cDNA Synthesis Kit (Roche). 100 ng of reverse transcribed complementary DNA, and its dilution series to calculate the efficacy of primers, were amplified by quantitative real-time PCR (qRT-PCR) on an iCycleriQ™ (Bio-Rad) using 300 nM gene-specific primers, Maxima® SYBR Green/Fluorescein qPCR Master Mix (2X) (Fermentas) and the following PCR conditions: 1 cycle at 95 °C for 10min, and 40 cycles of 95 °C for 15s , 60 °C for 30s, and 72 °C for 30s.
(§3) The expression level of β-actin gene was used as an internal control for normalization (ref gene). Raw cycle threshold values (Ct values) obtained for the target genes were compared to the Ct value obtained for the ref gene. […]
A general note: In qPCR the cycle at which signal appears reflects the starting amount.

The test system of data set [2] is A375 melanoma cells. The data set is described as follows: MTT cell viability, A375. Type of data set: cell-based, human. Conditions: for reduction of cell viability: A375, 24h exposure, 50 to 200 μM. How it is done: (§4) The colorimetric 3-(4,5-dimethylthiazol-2)-2,5-diphenyltetrazolium bromide (MTT) (Sigma Aldrich, Milan) assay was used to quantify cell viability. Briefly, cells were incubated in 96 well microplates in the appropriate complete medium with standardized densities for 24h as pre-incubation process. The medium was removed and replaced by medium containing different doses of the different CLA-isomers for 24h. Following treatment, the medium was removed and the cells were incubated with DMEM w/o red phenol with 0.5 mg/ml MTT for additional 2 to 4h at 37 °C. After removal of the medium and MTT, cells in each plate were incubated with 0.1 M HCl/isopropanol to dissolve the MTT-formazan crystals. Absorbance at 590 nm was recorded with a plate reader (Bio Rad mod 680). The relative number of viable cells was expressed as a percentage of the control.

Data set [3] concerns HeLa cervical carcinoma cells. In words: MTT cell viability, HeLa. Type of data set: cell-based, human. Conditions: 24h exposure, 50 to 200 μM. As for the experimental part:
as §4

In data set [4] the target is T1, 20Si human proteasome (Homo sapiens, UniProt P28062).
T1 construct: purchased Boston Biochem
The data set is described as follows: Cell-free inhibition of CT-like activity of 20Si proteasome. Type of data set: biochemical. Conditions: for IC50: 30 min pre-incubation, 37 °C, pH 7.5, N-Suc-LLVT-AMC 0.080 mM, read-out: IC50 on 20Si isoform (CT-like activity).
Experimental: The fluorescent substrate N-succinyl-Leu-Leu-Val-Tyr-7-amido-4-methylcoumarin (N-Suc-LLVT-AMC) was used for measurement of the CT-like activity of the proteasome, both in cell free assays and in cancer cell extracts, at a final concentration of 0.080 mM at 37 °C in Tris buffer pH 7.5, following the procedure described in Palmieri et al. [25].

For data set [5], the system named is caspase 3 in A375 cells. In words: Caspase 3 activity in A375 cells. Type of data set: cell-based, human. Conditions: A375, 24h, doses 50, 100 or 200 μM, dose-dependent, maximum.
Experimental: Pro-apoptotic and cytotoxic ability of CLA isomers were assayed by measuring caspase 3 and the activity of lactate dehydrogenase (LDH) in the spent media, respectively [25]. The caspase 3 activity, measured at 37 °C and pH 7.5, was expressed as fold increase compared to the control culture.
The test system of data set [6] is human fibroblasts. Type of data set: cell-based. As for the experimental part:
Human hepatoma cells (HepG2) were seeded (2x10^4cells/cm^2) and maintained for 24h in MEM (Gibco Invitrogen; Milano) medium supplemented with 2 mM L-glutamine, 1% nonessential amino acids and 10% FBS. Colon carcinoma (Caco-2), cervical carcinoma (Hela), glioblastoma (U87), melanoma (A375, A375M) and mammary adenocarcinoma (MCF7, MDA-MB) were seeded (1x10^4cells/cm^2) and grown in DMEM supplemented with 10% FBS, 2 mM L-glutamine. HepG2, Hela, U87, Caco-2, MCF7, MDA-MB, A375 and A375 metastatic melanoma (A375M) cell lines were obtained by ATCC (LCG standards, Milano, Italy). Normal human dermal fibroblast (NDHF) within 8th passage were seeded at a density of 2x10^4 cells/cm^2 and cultured in fibroblast growth medium (FGM-2; Lonza, Milan, Italy) containing 2% FBS, 50 μg/mL gentamycin and amphotericin B, 10μg/mL fibroblast growth factor and insulin. BHK21 cells (kindly donated by Dr. David Y Thomas, McGill University Montreal Canada) were cultured in DMEM/F12, 5% FBS, 1 mM L-glutamine, 200 µg/mL methotrexate, and 100units/mL penicillin-streptomycin. […]
The colorimetric 3-(4,5-dimethylthiazol-2)-2,5-diphenyltetrazolium bromide (MTT) (Sigma Aldrich, Milan) assay was used to quantify cell viability. […] Absorbance at 590 nm was recorded with a plate reader (Bio Rad mod 680). The relative number of viable cells was expressed as a percentage of the control.

Data set [7] relates to A375M metastatic melanoma cells. In words: MTT cell viability, A375M. Type of data set: cell-based, human. Conditions: 24h exposure, 50 to 200 μM. How it is done: as §4
The subject of data set [8] is APEH activity in A375 cells. In words: APEH activity in A375 cytoplasmic extracts after treatment. Type of data set: cell-based, human. As for the experimental part: (§5) APEH activity was measured spectrophotometrically using the chromogenic substrate acetyl-Ala-pNA (Bachem) as described before. The reaction mixture containing pure APEH or an appropriate amount of cell extract was incubated at 37 °C in 50 mM Tris-HCl, pH 7.5 (Tris Buffer).
(§6) Following the treatments, cells were washed three times with ice cold phosphate-buffer saline (PBS) and cytosolic extracts were prepared accordingly to a published procedure. Protein concentrations were determined in supernatants by BCA protein assay reagent kit (Pierce). Western blotting analyses were performed as previously described.

The target in data set [9] is T2, Porcine liver APEH (Sus scrofa, UniProt P19205).
T2 construct: purchased Takara; host or cells: porcine liver
T2 sequence (P19205 1-732): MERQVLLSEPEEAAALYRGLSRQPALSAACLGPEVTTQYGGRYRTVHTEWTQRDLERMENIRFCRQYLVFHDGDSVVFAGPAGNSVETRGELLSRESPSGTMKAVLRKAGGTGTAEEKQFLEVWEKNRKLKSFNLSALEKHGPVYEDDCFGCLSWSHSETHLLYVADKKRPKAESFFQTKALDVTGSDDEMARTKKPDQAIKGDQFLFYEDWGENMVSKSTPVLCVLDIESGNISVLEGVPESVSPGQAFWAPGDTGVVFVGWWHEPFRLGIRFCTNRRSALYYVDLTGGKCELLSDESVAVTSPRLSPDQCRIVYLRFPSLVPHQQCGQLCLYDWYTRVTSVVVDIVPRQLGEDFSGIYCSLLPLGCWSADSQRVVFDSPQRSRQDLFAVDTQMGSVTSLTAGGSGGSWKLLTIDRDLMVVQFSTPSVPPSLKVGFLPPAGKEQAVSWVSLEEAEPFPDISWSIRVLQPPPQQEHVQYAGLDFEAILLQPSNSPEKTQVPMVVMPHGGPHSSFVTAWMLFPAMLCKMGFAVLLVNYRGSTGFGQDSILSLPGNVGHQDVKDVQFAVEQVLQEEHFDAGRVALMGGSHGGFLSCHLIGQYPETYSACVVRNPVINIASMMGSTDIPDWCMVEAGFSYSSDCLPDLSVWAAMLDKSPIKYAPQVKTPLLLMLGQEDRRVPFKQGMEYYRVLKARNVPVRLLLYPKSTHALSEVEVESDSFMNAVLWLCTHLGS
In words: Cell-free APEH inhibition assay (acetyl-Ala-pNA). Type of data set: biochemical. As for the experimental part: as §5
(§7) Protease inhibition activities of CLA isomers and fatty acids were carried out using a fixed amount of commercially available APEH or 20S, 20Si, 26S proteasomes (3-5 nM or 0.12 mg/mL, respectively), and increasing concentrations of fatty acid. Mixtures were pre-incubated for 30min at 37 °C in 50 mM Tris-HCl buffer pH 7.5, before addition of the specific substrate, and the enzymatic activities were followed as described above.

Data set [10] deals with Bcl-2 in A375 cells. In words: Bcl-2 protein expression by immunoblotting in A375. Type of data set: cell-based, human. Conditions: A375, 24h, 50-200 μM. How it is done:
as §6

Data set [11] deals with T3, 20S human proteasome (Homo sapiens, UniProt P28074).
T3 construct: purchased Boston Biochem
In words: Cell-free inhibition of chymotrypsin-like (CT-like) activity of 20S proteasome. Type of data set: biochemical. Conditions: for IC50: 30 min pre-incubation, 37 °C, pH 7.5, N-Suc-LLVT-AMC 0.080 mM, read-out: IC50 on 20S isoform (CT-like activity). As for the experimental part:
(§8) The fluorescent substrate N-succinyl-Leu-Leu-Val-Tyr-7-amido-4-methylcoumarin (N-Suc-LLVT-AMC) was used for measurement of the CT-like activity of the proteasome, both in cell free assays and in cancer cell extracts, at a final concentration of 0.080 mM at 37 °C in Tris buffer pH 7.5, following the procedure described in Palmieri et al..
as §7

Data set [12] concerns β-5 proteasome subunit mRNA in A375 cells. The data set is described as follows: β-5 proteasome subunit mRNA by qRT-PCR in A375. Type of data set: cell-based, human. As for the experimental part: as §1, §2, §3
In data set [13] the test system is proteasomal CT-like activity in A375 cells. The data set is described as follows: Proteasomal CT-like activity in A375 cytoplasmic extracts after treatment. Conditions: for proteasomal CT-like activity inhibited to: 24h. Type of data set: cell-based, human. How it is done: as §8, §6
In data set [14] the test system is γGCL mRNA in A375 cells. The data set is described as follows: γGCL mRNA by qRT-PCR in A375. Type of data set: cell-based, human. Conditions: A375, 200 μM, end of time course.
Data set [15] concerns intracellular GSH in A375 cells. In words: Intracellular GSH in A375. Type of data set: cell-based, human. Conditions: A375, 24h, 50, 100 or 200 μM. How it is done:
Intracellular concentration of reduced and oxidized glutathione (GSH and GSSG, respectively) were quantified using the 5,5'-dithiobis(2-nitrobenzoic acid)-GSSG reductase recycling assay. GSSG content was preliminarily evaluated in cytosolic extracts of treated or untreated cells upon the addition of 10 mM 1-methyl-2-vinylpyridinium trifluoromethanesulfonate (a specific GSH scavenger).

In data set [16] the test system is MDA-MB mammary adenocarcinoma cells. The data set is described as follows: MTT cell viability, MDA-MB. Type of data set: cell-based, human. Conditions: 24h exposure, 50 to 200 μM. How it is done:
as §4

The test system of data set [17] is all cancer cells (U87, MCF7, MDA-MB, HeLa, Caco2, HepG2, A375M, A375). The data set is described as follows: MTT cell viability, eight cancer cell lines. Type of data set: cell-based, human. Conditions: up to 200 μM, 24h, data not shown. How it is done: as §4
Setting [18] is: negative control, data not shown.

The structures appear in SMILES notation.

In general, IC50 refers to the concentration needed to halve the response being measured. With `CCCCC/C=C\C=C\CCCCCCCCC(=O)O` [t10,c12-CLA, trans10,cis12 (t10,c12-CLA)], in data set [1] (A375, 50 μM, time course), the “APEH mRNA stable final value vs initial expression level” value is reported as “approximately one-fold lower”. Besides, the “APEH mRNA level” value in data set [1] (A375, 200 μM, 24h) is given as “strongly down-regulated”. Further, the “reduction of cell viability” value in data set [2] stood at 63%; in [3], 40%; in data set [7], 51%. For the same molecule, the IC50 in data set [4] is 1.1 ± 0.2 µM; in data set [9] (37 °C, pH 7.5) it was 110 ± 11.7 µM; in data set [11], 14.8 ± 2 µM. The “caspase 3 activation compared to the control culture” value in data set [5] is “eightfold increase”. Further, the “toxic effects on fibroblast proliferation” value in data set [6] was “lack of toxic effects”. In addition, in data set [8] (A375, 50 μM, plateau after 8h), the “APEH activity plateau, % of starting value” turned out to be 80%. In data set [8] (A375, 200 μM, time course), the “APEH activity plateau, % of starting level” value turned out to be 70%. Further, the “maximum inhibition of APEH” value in [9] (dose-dependent) is “about 41%”. In [10], the “maximum reduction of Bcl-2 expression” value came to 80%. Besides, the “β-5 mRNA stable final value vs initial expression level” value in data set [12] (A375, 50 μM, time course) is “approximately one-fold lower”. In addition, in data set [12] (A375, 200 μM, 24h), the “proteasome (β-5) mRNA level” value was “strongly down-regulated”. Moreover, in [13] (A375, 50 μM, plateau after 8h), the “proteasomal CT-like activity plateau, % of starting value” is on record as 70%. For the same molecule, the “proteasomal CT-like activity inhibited to” value is given as 50% in data set [13] (A375, 100 μM) and 25% in data set [13] (A375, 200 μM). Besides, in data set [14], the “down-regulation of γGCL mRNA levels” value is given as 1.5 fold. Besides, the “intracellular GSH” value in data set [15] is “significant decline”.
In the case of `CCCCCC/C=C/C=C\CCCCCCCC(=O)O` [c9,t11-CLA, cis9,trans11 (c9,t11-CLA)], the “reduction of cell viability” value in [2], in data set [7] and in data set [16] was less than 40% in each case. The IC50 in [4] amounted to 6.4 ± 1 µM; in [11], 31.2 ± 8.8 µM.
In the case of `CC(C)C[C@H](NC(=O)[C@H](Cc1ccccc1)NC(=O)c1cnccn1)B(O)O` [BTZ, bortezomib, reference compound], the IC50 in data set [2] (Homo sapiens, A-375, read-out: IC50 (dose accountable for 50% decrease of cell viability), A375, 24h) was determined as 0.01 ± 2e-05 µM. Also, the “inhibition reached, 20S” value in data set [11] (plateau of dose-response curve) is “about 60%”.
Turning to `CCCCCC/C=C/C=C/CCCCCCCC(=O)O` [t9,t11-CLA], in data set [2], the “reduction of cell viability” value is given as “about 50%”.
Consider `CCCCCCCC(=O)O` [octanoic acid, reference compound], for which the “inhibitory effect on 20Si CT-like activity” value in [4] (setting [18]) was “only negligible effects”. In addition, the “inhibitory effect on 20S CT-like activity” value in [11] (setting [18]) is on record as “only negligible effects”. Besides, the “effect on cell viability” value in data set [17] is recorded as “no significant results”.

These data come from paper PMC3834215, “RedOx Status, Proteasome and APEH: Insights into Anticancer Mechanisms of t10,c12-Conjugated Linoleic Acid Isomer on A375 Melanoma Cells” (PLoS ONE, 2013).
